Results reported in paper PMC9325269, “New Polymethoxyflavones from Hottonia palustris Evoke DNA Biosynthesis-Inhibitory Activity in An Oral Squamous Carcinoma (SCC-25) Cell Line” (Molecules, 2022).
Where two headings read alike, the source gives them in different places.

Tests used:
[1] = system: human tongue squamous carcinoma cells SCC-25; test: MTT cell viability assay, SCC-25 cells; format: cell-based; details: read-out: IC50 of viability, SCC-25
Protocol: (§1) The cell viability and proliferation assays were performed on the human tongue squamous cell line (SCC-25). The cells were obtained from ATCC (CRL-1628, American Type Culture Collection, Manassas, VA, USA) and cultured in a 1:1 mixture of DMEM (Dulbecco’s minimal essential medium) and Ham’s F12 medium (Thermo Fisher Scientific, Waltham, MA, USA, 31330038) supplemented with 400 ng/mL hydrocortisone (Sigma-Aldrich, Burlington, MA, USA, H0135), 10% FBS (fetal bovine serum, Thermo Fisher Scientific, Waltham, MA, USA, 10270106), and penicillin–streptomycin solution (Thermo Fisher Scientific, Waltham, MA, USA, 15140122). Furthermore, for the cytotoxicity assay, human skin fibroblasts (CCD25Sk) cultured in DMEM (Thermo Fisher Scientific, Waltham, MA, USA, 41966029) supplemented with 10% FBS and penicillin-streptomycin solution were used. The cells were incubated at 37 °C in the air with 5% CO2. […] MTT (M5655), SDS (L3771), and cisplatin (cPT), which was used as a positive control (P4394), were purchased from Sigma-Aldrich (Burlington, MA, USA).
(§2) The cell viability assay leans on the transformation of yellow tetrazolinum bromide MTT solution to the purple derivative of formazan via succinate dehydrogenase, an enzyme present in viable cells. Cells were cultured (1 × 10^4 per well) on a 96-well plate to receive 70% of their confluency. After 24 h and 48 h of incubation with the studied samples (prepared as DMSO solutions directly before the assay), the cells were washed with PBS (phosphate-buffered saline). Subsequently, the MTT solution was added, and the plates were incubated at 37 °C for 2 h. Then, formazan crystals were dissolved in 200 μL of DMSO with Sorensen’s glycine buffer and were shacked for 10 min.

[2] = system: DNA biosynthesis in SCC-25 cells; test: [3H]-thymidine incorporation (DNA biosynthesis / proliferation) assay; format: cell-based; details: Homo sapiens; 48 h treatment of SCC-25 cells (as stated in abstract); read-out: DNA biosynthesis-inhibitory activity IC50
Protocol: Considering this fact, an evaluation determining whether the cytotoxicity of the samples was the result of their influence on the biosynthesis of cell DNA was carried out by assessing the capability of intracellular thymidine incorporation.
The proliferation of the tested cells was estimated as [^3H]-thymidine incorporation into the DNA of the cells treated with the studied samples [40]. Firstly, cells (1 × 10^4 per well) were placed in 24-well plates and were allowed to adhere for 24 h. […] After incubation for 24 h and 48 h at 37 °C, the cells were rinsed with PBS and solubilized with 1 mL of 0.1 M NaOH (sodium hydroxide) containing 1% SDS (sodium dodecyl sulfate). Then, radioactivity was recorded in a Liquid Scintillation Analyzer (Perkin-Elmer, Waltham, MA, USA) after correction to 9 mL with scintillation liquid.

[3] = system: SCC-25 squamous carcinoma cells; test: Morphological profile of SCC-25 cells (microphotographs); format: cell-based, human; details: 24 h and 48 h; extracts 100 µg/mL, compounds 100 µM
[4] = system: normal fibroblasts; test: MTT cell viability assay, normal fibroblasts; format: cell-based, human; details: read-out: IC50 of viability, Fibroblasts
Protocol: as §1, §2

[5] = system: melanoma cells; details: cited from earlier work
[6] = Homo sapiens, SCC-25, 24 h, MTT, compounds 6.25–200 µM
[7] = Homo sapiens, SCC-25, 48 h, MTT, compounds 6.25–200 µM
[8] = 24 h, MTT, compounds 6.25–200 µM
[9] = 48 h, MTT, compounds 6.25–200 µM

For `O=C(CC(=O)c1ccccc1)c1ccccc1` [Compound 1, 1,3-diphenylpropane-1,3-dione], the IC50 ([1]; Homo sapiens, SCC-25, 24 h) was 40 ± 1.89 µM, the IC50 ([1]; Homo sapiens, SCC-25, 48 h) was 29.1 ± 1.45 µM and the IC50 [2] was 29.1 ± 1.45 µM. For the same compound, the “morphological profile, cell adhesion and number of cells versus untreated” value [3] was “decreased the number of cells”, the IC50 ([4]; Homo sapiens, Fibroblast, 24 h) was greater than 200 µM and the IC50 ([4]; Homo sapiens, Fibroblast, 48 h) was greater than 200 µM. For the same compound, the cell cycle effect [5] was “cell-cycle deregulation”.

Compound `O=c1cc(-c2ccccc2)oc2cccc(O)c12` [Compound 2, 5-hydroxy-2-phenyl-4H-chromen-4-one] has an IC50 [1, 6] greater than 200 µM and an IC50 [1, 7] greater than 200 µM.

For `COc1ccccc1-c1cc(=O)c2c(O)cccc2o1` [Compound 3, 5-hydroxy-2-(2-methoxyphenyl)-4H-chromen-4-one], the IC50 ([1]; Homo sapiens, SCC-25, 24 h) was greater than 200 µM and the IC50 ([1]; Homo sapiens, SCC-25, 48 h) was greater than 200 µM.

Work on `COc1cccc(OC)c1-c1cc(=O)c2c(O)cccc2o1` [Compound 4, 5-hydroxy-2-(2,6-dimethoxyphenyl)-4H-chromen-4-one] yielded an IC50 ([1]; Homo sapiens, SCC-25, 24 h) greater than 200 µM and an IC50 ([1]; Homo sapiens, SCC-25, 48 h) greater than 200 µM.

In the case of `COc1ccc(OC)c(-c2cc(=O)c3c(O)cccc3o2)c1OC` [Compound 5, 5-hydroxy-2-(2,3,6-trimethoxyphenyl)-4H-chromen-4-one], the IC50 ([1]; Homo sapiens, SCC-25, 24 h) is reported as greater than 200 µM and the IC50 ([1]; Homo sapiens, SCC-25, 48 h) is reported as greater than 200 µM.

For `COc1cccc(O)c1-c1cc(=O)c2c(O)cccc2o1` [Compound 6, 5-hydroxy-2-(2-hydroxy-6-methoxyphenyl)-4H-chromen-4-one], the IC50 [1, 6] was greater than 200 µM and the IC50 [1, 7] was greater than 200 µM.

Compound `COc1ccc(O)c(-c2cc(=O)c3c(O)cccc3o2)c1OC` [Compound 7, 5-hydroxy-2-(6-hydroxy-2,3-dimethoxyphenyl)-4H-chromen-4-one] has an IC50 ([1]; Homo sapiens, SCC-25, 24 h) of 78.2 ± 3.25 µM, an IC50 ([1]; Homo sapiens, SCC-25, 48 h) of 40.6 ± 1.65 µM and an IC50 [2] of 40.6 ± 1.65 µM. The “morphological profile, cell adhesion and number of cells versus untreated” value [3] was “decreased the number of cells”, the IC50 ([4]; Homo sapiens, Fibroblast, 24 h) was greater than 200 µM and the IC50 ([4]; Homo sapiens, Fibroblast, 48 h) was greater than 200 µM.

For `N.N.[Cl][Pt][Cl]` [cPT, cisplatin, reference compound], the IC50 [1, 8] was 26.1 ± 1.03 µM, the IC50 [1, 9] was 7.58 ± 0.37 µM and the “morphological profile, cell adhesion and number of cells versus untreated” value [3] was “decreased the number of cells”. For the same compound, the IC50 [4, 8] was greater than 200 µM and the IC50 [4, 9] was 40.5 ± 2.01 µM.
